We go through three molecules from ChEMBL document CHEMBL4406811, “Optimization and Mechanistic Characterization of Pyridopyrimidine Inhibitors of Bacterial Biotin Carboxylase” (J Med Chem, 2019).

Converted amounts (≈) assume the structure as drawn. The source made the active and inactive calls. No cut-off for these calls is given here.

One series deals with MAPK1 (Homo sapiens, UniProt P28482). Put plainly: Inhibition of recombinant human full-length GST-tagged MAPK1 […] expressed in Escherichia coli at 25 uM using FRET-labeled Ser/Thr 03 peptide as substrate measured after 1 hr by Z'-lyte assay relative to control. The following applies: probe FRET-labeled Ser/Thr 03 peptide.
Series [1] deals with Escherichia coli. Put plainly: Induction of cytological changes in Escherichia coli ATCC 25922 assessed as formation of short chains of three to eight cells at 15 ug/ml measured after 2 hrs by FM 4-64/DAPI staining based microscopic analysis. The format is functional, organism-based.
Another series concerns the target ABL1 (Homo sapiens, UniProt P00519). Nature of the series: Inhibition of full-length recombinant human His-tagged ABL1 cytoplasmic domain expressed in baculovirus expression system at 25 uM using FRET-labeled tyr 02 peptide as substrate measured after 1 hr by Z'-lyte assay relative to control. The following applies: probe FRET-labeled tyr 02 peptide.
The target of another series is MAPK14 (Homo sapiens, UniProt Q16539). Put plainly: Inhibition of recombinant human full-length GST-tagged MAPK14 expressed in Escherichia coli at 25 uM using FRET-labeled Ser/Thr 15 peptide as substrate measured after 1 hr by Z'-lyte assay relative to control. The conditions noted are these: probe FRET-labeled Ser/Thr 15 peptide.
The subject of another series is Pseudomonas aeruginosa. Put plainly: Antibacterial activity against Pseudomonas aeruginosa PAO1 PAM1262 harboring MexAB-OprM/MexCD-OprJ/MexEF-OprN deletion mutant assessed as mutation frequency at 8 times MIC after 48 hrs by broth microdilution method. The format is functional. A general note: Dilution methods test growth across graded concentrations, often in twofold steps.

Another series deals with MET (Homo sapiens, UniProt P08581). Put plainly: in vitro. The conditions noted are these: probe FRET-labeled Tyr 06 peptide.
A further series has as its target Biotin carboxylase (Pseudomonas aeruginosa (strain ATCC 15692 / DSM 22644 / CIP 104116 / JCM14847 / LMG 12228 / 1C / PRS 101 / PAO1), UniProt P37798). Nature of the series: Inhibition of recombinant N-terminal His-tagged Pseudomonas aeruginosa PAO1 biotin carboxylase expressed in Escherichia coli Rosetta(DE3) pLysS cells using biotin as substrate by spectroscopic analysis.

The target of a further series is FYN (Homo sapiens, UniProt P06241). Put plainly: Inhibition of full-length recombinant human C-terminal His-tagged FYN cytoplasmic domain expressed in baculovirus expression system at 25 uM using FRET-labeled tyr 02 peptide as substrate measured after 1 hr by Z'-lyte assay relative to control. The conditions noted are these: probe FRET-labeled tyr 02 peptide.
In series [2] the test system is Escherichia coli. Put plainly: Antibacterial activity against Escherichia coli DM4100 harboring deltatolC mutant measured after 18 to 20 hrs by broth microdilution method. The format is functional.
The target of a further series is IKBKE (Homo sapiens, UniProt Q14164). Nature of the series: in vitro. The conditions noted are these: probe FRET-labeled Ser/Thr 11 peptide.
Another series deals with CDK1/cyclin B (Homo sapiens, UniProt P06493). Nature of the series: Inhibition of full-length recombinant human His-tagged CDK1/cyclin B expressed in baculovirus expression system at 25 uM using FRET-labeled Ser/Thr 18 peptide as substrate measured after 1 hr by Z'-lyte assay relative to control. The conditions noted are these: probe FRET-labeled Ser/Thr 18 peptide.
A further series addresses AURKA (Homo sapiens, UniProt O14965). Put plainly: Inhibition of recombinant human full-length His-tagged AURKA expressed in baculovirus expression system at 25 uM using FRET-labeled Ser/Thr 01 peptide as substrate measured after 1 hr by Z'-lyte assay relative to control. The following applies: probe FRET-labeled Ser/Thr 01 peptide.
A further series deals with CSNK2A1 (Homo sapiens, UniProt P68400). Nature of the series: Inhibition of recombinant human full-length His-tagged CSNK2A1 expressed in baculovirus expression system at 25 uM using FRET-labeled Ser/Thr 11 peptide as substrate measured after 1 hr by Z'-lyte assay relative to control. The following applies: probe FRET-labeled Ser/Thr 11 peptide.
The target of a further series is IKBKB (Homo sapiens, UniProt O14920). Nature of the series: in vitro. The following applies: probe FRET-labeled Ser/Thr 05 peptide.
The target in a further series is BTK (Homo sapiens, UniProt Q06187). Put plainly: Inhibition of full-length recombinant human His-tagged BTK cytoplasmic domain expressed in baculovirus expression system at 25 uM using FRET-labeled tyr 01 peptide as substrate measured after 1 hr by Z'-lyte assay relative to control. The following applies: probe FRET-labeled tyr 01 peptide.
Series [3] relates to Escherichia coli. Nature of the series: Induction of cytological changes in Escherichia coli ATCC 25922 assessed as formation of short chains of three to eight cells at 100 ug/ml measured after 2 hrs by FM 4-64/DAPI staining based microscopic analysis. The format is functional, organism-based.
For the next series, the target named is SGK (Sgk1) (Homo sapiens, UniProt O00141). Put plainly: Inhibition of recombinant human GST-tagged SGK catalytic domain (60 to 431 residues) expressed in baculovirus expression system at 25 uM using FRET-labeled Ser/Thr 06 peptide as substrate measured after 1 hr by Z'-lyte assay relative to control. The following applies: probe FRET-labeled Ser/Thr 06 peptide.

Sequence of ABL1 (P00519 whole entry, the tested form may be a part): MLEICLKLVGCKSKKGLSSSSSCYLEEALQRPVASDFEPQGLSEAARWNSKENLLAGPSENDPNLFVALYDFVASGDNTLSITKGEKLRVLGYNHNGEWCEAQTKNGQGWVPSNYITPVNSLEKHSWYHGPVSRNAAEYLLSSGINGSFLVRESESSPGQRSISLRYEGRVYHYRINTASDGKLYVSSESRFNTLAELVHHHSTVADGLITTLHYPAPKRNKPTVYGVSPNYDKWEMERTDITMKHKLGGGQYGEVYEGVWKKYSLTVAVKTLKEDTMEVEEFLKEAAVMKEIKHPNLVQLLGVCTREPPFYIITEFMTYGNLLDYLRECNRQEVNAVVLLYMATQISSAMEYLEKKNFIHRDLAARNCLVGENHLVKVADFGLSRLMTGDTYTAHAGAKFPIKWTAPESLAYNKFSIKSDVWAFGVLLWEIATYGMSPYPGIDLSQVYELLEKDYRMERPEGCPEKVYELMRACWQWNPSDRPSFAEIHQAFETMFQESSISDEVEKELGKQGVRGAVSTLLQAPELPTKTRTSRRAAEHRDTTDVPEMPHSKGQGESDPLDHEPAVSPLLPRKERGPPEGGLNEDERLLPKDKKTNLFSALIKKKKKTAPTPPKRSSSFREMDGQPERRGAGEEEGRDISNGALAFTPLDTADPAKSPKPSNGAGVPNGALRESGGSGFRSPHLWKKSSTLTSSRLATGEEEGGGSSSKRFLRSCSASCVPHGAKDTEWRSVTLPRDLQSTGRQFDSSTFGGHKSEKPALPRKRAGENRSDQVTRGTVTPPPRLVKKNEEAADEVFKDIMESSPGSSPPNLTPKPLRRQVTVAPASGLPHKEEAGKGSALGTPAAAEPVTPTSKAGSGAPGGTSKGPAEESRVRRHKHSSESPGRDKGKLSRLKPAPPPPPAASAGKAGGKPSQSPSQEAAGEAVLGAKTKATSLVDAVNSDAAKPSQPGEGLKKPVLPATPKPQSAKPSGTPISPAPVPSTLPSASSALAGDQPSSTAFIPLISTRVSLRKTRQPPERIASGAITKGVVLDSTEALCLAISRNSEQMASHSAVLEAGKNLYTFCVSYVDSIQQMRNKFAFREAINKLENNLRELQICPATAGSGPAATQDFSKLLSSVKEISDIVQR
Sequence of FYN (P06241 whole entry, the tested form may be a part): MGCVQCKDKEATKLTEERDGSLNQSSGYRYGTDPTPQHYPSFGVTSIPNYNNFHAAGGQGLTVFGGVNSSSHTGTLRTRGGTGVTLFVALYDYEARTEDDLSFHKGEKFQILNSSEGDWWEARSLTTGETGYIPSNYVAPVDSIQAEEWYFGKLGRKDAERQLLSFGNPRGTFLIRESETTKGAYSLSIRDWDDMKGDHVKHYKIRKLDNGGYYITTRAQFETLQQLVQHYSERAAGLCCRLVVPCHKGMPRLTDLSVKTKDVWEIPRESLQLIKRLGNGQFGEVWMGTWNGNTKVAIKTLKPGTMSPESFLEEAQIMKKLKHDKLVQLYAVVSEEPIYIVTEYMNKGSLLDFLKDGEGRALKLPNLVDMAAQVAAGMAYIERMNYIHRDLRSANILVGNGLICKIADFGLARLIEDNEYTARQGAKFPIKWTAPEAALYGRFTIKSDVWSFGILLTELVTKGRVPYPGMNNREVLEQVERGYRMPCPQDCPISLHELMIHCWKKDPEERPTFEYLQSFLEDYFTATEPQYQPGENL
Sequence of MET (P08581 whole entry): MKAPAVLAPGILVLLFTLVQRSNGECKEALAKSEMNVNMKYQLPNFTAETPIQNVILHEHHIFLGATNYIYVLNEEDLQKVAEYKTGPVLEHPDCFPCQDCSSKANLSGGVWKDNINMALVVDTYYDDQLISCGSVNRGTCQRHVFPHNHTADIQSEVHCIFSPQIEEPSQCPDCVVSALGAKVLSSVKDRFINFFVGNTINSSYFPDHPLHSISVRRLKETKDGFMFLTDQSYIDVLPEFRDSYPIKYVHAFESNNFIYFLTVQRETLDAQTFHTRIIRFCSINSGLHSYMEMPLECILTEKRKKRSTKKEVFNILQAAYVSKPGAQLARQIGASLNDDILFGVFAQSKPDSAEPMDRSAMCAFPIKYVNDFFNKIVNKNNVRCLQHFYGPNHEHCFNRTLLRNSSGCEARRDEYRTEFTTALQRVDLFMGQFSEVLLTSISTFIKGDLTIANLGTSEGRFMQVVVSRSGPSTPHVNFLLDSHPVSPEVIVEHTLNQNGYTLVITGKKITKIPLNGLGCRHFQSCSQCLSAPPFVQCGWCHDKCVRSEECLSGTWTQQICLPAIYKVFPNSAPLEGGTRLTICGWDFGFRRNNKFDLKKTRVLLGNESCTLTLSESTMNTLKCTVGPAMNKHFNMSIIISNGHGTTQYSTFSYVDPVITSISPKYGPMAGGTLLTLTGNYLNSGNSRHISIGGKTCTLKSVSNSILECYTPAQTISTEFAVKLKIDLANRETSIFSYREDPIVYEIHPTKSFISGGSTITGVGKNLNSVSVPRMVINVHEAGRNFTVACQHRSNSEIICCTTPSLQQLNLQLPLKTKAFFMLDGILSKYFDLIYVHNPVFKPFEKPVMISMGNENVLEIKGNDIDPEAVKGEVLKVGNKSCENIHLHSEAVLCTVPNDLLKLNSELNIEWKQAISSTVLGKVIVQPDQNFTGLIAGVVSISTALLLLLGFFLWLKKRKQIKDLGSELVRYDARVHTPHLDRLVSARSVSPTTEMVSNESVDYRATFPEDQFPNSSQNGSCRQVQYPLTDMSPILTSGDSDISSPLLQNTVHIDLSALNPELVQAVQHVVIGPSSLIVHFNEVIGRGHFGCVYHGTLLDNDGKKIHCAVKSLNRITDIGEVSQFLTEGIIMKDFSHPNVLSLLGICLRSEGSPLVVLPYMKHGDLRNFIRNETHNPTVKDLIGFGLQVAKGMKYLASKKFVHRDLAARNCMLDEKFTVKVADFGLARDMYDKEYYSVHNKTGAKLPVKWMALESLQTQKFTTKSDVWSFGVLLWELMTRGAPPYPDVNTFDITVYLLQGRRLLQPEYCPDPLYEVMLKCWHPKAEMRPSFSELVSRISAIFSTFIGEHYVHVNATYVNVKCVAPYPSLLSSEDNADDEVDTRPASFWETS
Sequence of AURKA (O14965 whole entry): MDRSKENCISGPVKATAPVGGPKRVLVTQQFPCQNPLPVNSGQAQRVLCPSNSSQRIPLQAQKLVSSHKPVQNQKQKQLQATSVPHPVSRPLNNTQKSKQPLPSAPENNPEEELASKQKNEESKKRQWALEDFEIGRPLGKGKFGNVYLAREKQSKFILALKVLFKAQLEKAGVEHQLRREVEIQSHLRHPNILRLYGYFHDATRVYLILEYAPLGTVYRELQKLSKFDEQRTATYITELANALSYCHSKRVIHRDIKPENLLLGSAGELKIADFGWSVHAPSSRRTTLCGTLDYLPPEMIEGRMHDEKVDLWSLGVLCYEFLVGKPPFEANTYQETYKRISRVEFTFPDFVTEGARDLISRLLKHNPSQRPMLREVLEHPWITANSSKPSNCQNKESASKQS
Sequence of CDK1/cyclin B (P06493 whole entry): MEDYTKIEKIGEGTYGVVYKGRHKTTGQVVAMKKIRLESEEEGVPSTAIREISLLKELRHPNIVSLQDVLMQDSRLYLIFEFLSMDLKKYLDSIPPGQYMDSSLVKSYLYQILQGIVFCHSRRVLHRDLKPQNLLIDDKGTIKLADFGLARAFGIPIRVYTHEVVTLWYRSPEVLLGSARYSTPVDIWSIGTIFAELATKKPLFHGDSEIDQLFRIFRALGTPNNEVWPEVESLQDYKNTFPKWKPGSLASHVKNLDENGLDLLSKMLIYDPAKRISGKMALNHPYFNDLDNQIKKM
Sequence of CDK1/cyclin B (P14635 whole entry, further chain): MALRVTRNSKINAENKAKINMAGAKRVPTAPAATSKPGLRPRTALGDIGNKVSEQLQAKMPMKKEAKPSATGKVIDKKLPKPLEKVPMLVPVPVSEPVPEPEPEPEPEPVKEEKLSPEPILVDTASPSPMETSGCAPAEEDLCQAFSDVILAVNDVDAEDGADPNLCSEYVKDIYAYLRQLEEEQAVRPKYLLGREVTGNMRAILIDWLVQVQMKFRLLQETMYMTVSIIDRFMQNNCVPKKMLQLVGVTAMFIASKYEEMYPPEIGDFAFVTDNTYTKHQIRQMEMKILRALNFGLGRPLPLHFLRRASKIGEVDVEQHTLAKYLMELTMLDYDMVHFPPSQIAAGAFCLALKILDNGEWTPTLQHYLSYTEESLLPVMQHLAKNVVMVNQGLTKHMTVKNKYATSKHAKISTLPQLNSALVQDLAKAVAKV
Sequence of MAPK14 (Q16539 whole entry): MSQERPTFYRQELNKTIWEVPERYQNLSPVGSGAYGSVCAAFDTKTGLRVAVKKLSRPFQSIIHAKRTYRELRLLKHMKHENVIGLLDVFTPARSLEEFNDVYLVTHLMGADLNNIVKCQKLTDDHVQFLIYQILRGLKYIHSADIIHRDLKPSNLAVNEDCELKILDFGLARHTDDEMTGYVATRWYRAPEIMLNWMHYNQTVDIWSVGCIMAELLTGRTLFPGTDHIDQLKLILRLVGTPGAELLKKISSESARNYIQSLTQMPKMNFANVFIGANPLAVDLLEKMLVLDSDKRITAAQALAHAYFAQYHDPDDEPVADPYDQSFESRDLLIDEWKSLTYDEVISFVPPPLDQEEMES
Sequence of Biotin carboxylase (P37798 whole entry): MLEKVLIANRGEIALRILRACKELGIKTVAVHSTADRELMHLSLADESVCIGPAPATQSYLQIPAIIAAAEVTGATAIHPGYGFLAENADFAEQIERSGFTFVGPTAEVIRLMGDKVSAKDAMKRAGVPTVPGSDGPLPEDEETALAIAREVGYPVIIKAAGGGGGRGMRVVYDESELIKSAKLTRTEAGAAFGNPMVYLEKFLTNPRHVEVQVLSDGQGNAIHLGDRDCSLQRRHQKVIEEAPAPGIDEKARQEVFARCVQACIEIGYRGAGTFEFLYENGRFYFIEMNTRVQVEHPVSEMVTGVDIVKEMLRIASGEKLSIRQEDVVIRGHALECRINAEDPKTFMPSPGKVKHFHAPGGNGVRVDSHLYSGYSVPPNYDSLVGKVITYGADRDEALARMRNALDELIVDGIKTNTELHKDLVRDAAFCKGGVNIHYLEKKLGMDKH

By inhibition is commonly meant the share of the control response that was lost under treatment. What is called IC50 is the concentration needed to halve the response being measured. In general, MIC refers to the least concentration at which growth counts as inhibited. Higher therefore signals a less susceptible organism. As to `CC(C)COc1cccc(Cl)c1-c1cc2cnc(N)nc2nc1N1C[C@@H]2[C@@H](N)[C@@H]2C1`, the inhibition at 1 h, 25 µM is 6% on MAPK1; 30% at ABL1; 5% at MAPK14; 15% against MET; 12% at FYN; 0% at IKBKE. Further, the result in the series with Escherichia coli [1] was Active. Also, the Activity in the series with Pseudomonas aeruginosa came out at 2 ×10⁻⁹ No_unit. Besides, on Biotin carboxylase, the IC50 is no more than 15 nM. This molecule also came in with an MIC with Escherichia coli [2] of 0.03 µg/mL (≈ 0.0706 µM).

Regarding `Nc1ncc2cc(-c3c(Cl)cccc3-c3cccnc3)c(N3C[C@@H]4[C@@H](N)[C@@H]4C3)nc2n1`, the inhibition at 1 h, 25 µM was found to be 4% at CDK1/cyclin B; 38% on ABL1; 9% on AURKA; 7% on MET; 0% at CSNK2A1; 5% against IKBKB. Moreover, the figures for the inhibition at 1 h, 25 µM on FYN, on BTK and at IKBKE were 12%, 16% and 3%, respectively. Besides, the Activity with Pseudomonas aeruginosa is on record as 9 ×10⁻⁹ No_unit. The IC50 at Biotin carboxylase was no more than 15 nM. In the series on Escherichia coli [2], this molecule had an MIC of 0.03 µg/mL (≈ 0.0698 µM).

Consider `Nc1ncc2cc(-c3c(Br)cccc3Br)c(N)nc2n1`, for which the inhibition at 1 h, 25 µM worked out at 26% at MAPK1; 18% on CDK1/cyclin B; 97% on ABL1; 24% on MAPK14; 20% at AURKA; 4% at CSNK2A1. At SGK (Sgk1), the inhibition at 1 h, 25 µM is 7%. Also, the result in the series on Escherichia coli [3] was Active.
